Positions of bridges follow the written chain, without caps; N, C: chain ends. Residues, ends and D or L forms follow the SMILES beside them.

The values that follow come from PMC11558128 (Advanced Science, 2024).

One assay concerns the target T1, rKv4.2 (Rattus norvegicus, UniProt Q63881).
T1 construct: expressed in transfected cells; host or cells: HEK293T
T1 sequence (Q63881 1-630): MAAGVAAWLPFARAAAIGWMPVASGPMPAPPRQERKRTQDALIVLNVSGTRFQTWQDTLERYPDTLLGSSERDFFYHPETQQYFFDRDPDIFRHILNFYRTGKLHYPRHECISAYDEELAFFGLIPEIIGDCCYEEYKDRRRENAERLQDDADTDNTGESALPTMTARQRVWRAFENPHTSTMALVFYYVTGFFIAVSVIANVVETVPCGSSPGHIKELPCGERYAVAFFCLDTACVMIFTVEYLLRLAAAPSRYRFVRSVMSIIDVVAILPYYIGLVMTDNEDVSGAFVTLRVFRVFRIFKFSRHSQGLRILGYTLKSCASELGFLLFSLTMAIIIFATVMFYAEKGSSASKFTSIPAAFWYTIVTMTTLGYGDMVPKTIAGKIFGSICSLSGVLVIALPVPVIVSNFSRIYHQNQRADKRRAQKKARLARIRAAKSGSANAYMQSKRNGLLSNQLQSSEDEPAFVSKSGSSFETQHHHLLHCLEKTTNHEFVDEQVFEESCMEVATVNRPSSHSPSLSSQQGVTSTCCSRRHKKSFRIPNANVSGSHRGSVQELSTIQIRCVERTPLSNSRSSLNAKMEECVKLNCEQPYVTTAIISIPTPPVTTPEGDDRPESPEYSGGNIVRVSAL
Kind of assay: cell-based. Conditions: analogue compared with its parent toxin.
In the case of `CC(C)C[C@@H]1NC(=O)[C@H](Cc2ccc(O)cc2)NC(=O)[C@H](CC(N)=O)NC(=O)[C@H](CCCCN)NC(=O)[C@@H]2CSSC[C@H](NC(=O)CNC(=O)[C@@H](N)CCCCN)C(=O)N[C@@H](CCCCN)C(=O)NCC(=O)N[C@@H](Cc3ccccc3)C(=O)NCC(=O)N[C@@H](CC(=O)O)C(=O)N[C@@H](CO)C(=O)N[C@H]3CSSC[C@H](NC1=O)C(=O)N[C@@H](CO)C(=O)N[C@@H](CO)C(=O)N[C@@H](C)C(=O)N[C@@H](Cc1c[nH]cn1)C(=O)N[C@@H](CCCCN)C(=O)N[C@@H](Cc1c[nH]c4ccccc14)C(=O)N[C@H](C(=O)N[C@@H](CCCCN)C(=O)N[C@H](C(=O)N[C@@H](Cc1ccc(O)cc1)C(=O)N[C@@H](CC(C)C)C(=O)N[C@H](C(N)=O)C(C)C)C(C)C)CSSC[C@H](NC(=O)[C@H](CCC(=O)O)NC(=O)[C@H](CC(N)=O)NC(=O)[C@H](CCCCN)NC(=O)CNC(=O)[C@@H]1CCCN1C(=O)[C@H]([C@@H](C)O)NC3=O)C(=O)N2` [HNTX-III-H4-K25A] (H-KGCKGFGDSCTPGKNECCKNYLCSSAHKWCKVYLV-NH2; disulfide 3-18, 10-23, 17-30; N-terminus and C-terminus assumed), the “inhibition of rKv4.2, in words” value is “disappeared”.

The assay is the same for the next values; noted with them: whole-cell patch clamp, HEK293T; mean ± SEM, n = 3-8; SEM; read-out: IC50 on rKv4.2 WT.
`CC(C)C[C@H](NC(=O)[C@H](Cc1ccc(O)cc1)NC(=O)[C@@H](NC(=O)[C@H](CCCCN)NC(=O)[C@@H]1CSSC[C@@H]2NC(=O)[C@H](CCC(=O)O)NC(=O)[C@H](CC(N)=O)NC(=O)[C@H](CCCCN)NC(=O)CNC(=O)[C@@H]3CCCN3C(=O)[C@H]([C@@H](C)O)NC(=O)[C@@H]3CSSC[C@H](NC(=O)[C@H](CC(C)C)NC(=O)[C@H](Cc4ccc(O)cc4)NC(=O)[C@H](CC(N)=O)NC(=O)[C@@H]4CCCN4C(=O)[C@H](CSSC[C@H](NC(=O)CN)C(=O)N[C@@H](CCCCN)C(=O)NCC(=O)N[C@@H](Cc4ccccc4)C(=O)NCC(=O)N[C@@H](CC(=O)O)C(=O)N[C@@H](CO)C(=O)N3)NC2=O)C(=O)N[C@@H](CO)C(=O)N[C@@H](CO)C(=O)N[C@@H](CCCCN)C(=O)N[C@@H](Cc2c[nH]cn2)C(=O)N[C@@H](CCCCN)C(=O)N[C@@H](Cc2c[nH]c3ccccc23)C(=O)N1)C(C)C)C(N)=O` [A21L] (H-GCKGFGDSCTPGKNECCPNYLCSSKHKWCKVYL-NH2; disulfide 2-17, 9-22, 16-29): the IC50 was 60 ± 10 nM.

As to `CC(C)C[C@H](NC(=O)[C@H](Cc1ccc(O)cc1)NC(=O)[C@@H](NC(=O)[C@H](CCCCN)NC(=O)[C@@H]1CSSC[C@@H]2NC(=O)[C@H](CCC(=O)O)NC(=O)[C@H](CC(N)=O)NC(=O)[C@H](CCCCN)NC(=O)CNC(=O)[C@@H]3CCCN3C(=O)[C@H]([C@@H](C)O)NC(=O)[C@@H]3CSSC[C@H](NC(=O)[C@H](C(C)C)NC(=O)[C@H](Cc4ccc(O)cc4)NC(=O)[C@H](CC(N)=O)NC(=O)[C@@H]4CCCN4C(=O)[C@H](CSSC[C@H](NC(=O)CN)C(=O)N[C@@H](CCCCN)C(=O)NCC(=O)N[C@@H](Cc4ccccc4)C(=O)NCC(=O)N[C@@H](CC(=O)O)C(=O)N[C@@H](CO)C(=O)N3)NC2=O)C(=O)N[C@@H](CO)C(=O)N[C@@H](CO)C(=O)N[C@@H](CCCCN)C(=O)N[C@@H](Cc2c[nH]cn2)C(=O)N[C@@H](CCCCN)C(=O)N[C@@H](Cc2c[nH]c3ccccc23)C(=O)N1)C(C)C)C(N)=O` [A21V] (H-GCKGFGDSCTPGKNECCPNYVCSSKHKWCKVYL-NH2; disulfide 2-17, 9-22, 16-29), the IC50 amounted to 1000 ± 144 nM.

Consider `CC(C)C[C@H](NC(=O)[C@H](Cc1ccc(O)cc1)NC(=O)[C@@H](NC(=O)[C@H](CCCCN)NC(=O)[C@@H]1CSSC[C@@H]2NC(=O)[C@H](CCC(=O)O)NC(=O)[C@H](CC(N)=O)NC(=O)[C@H](CCCCN)NC(=O)CNC(=O)[C@@H]3CCCN3C(=O)[C@H]([C@@H](C)O)NC(=O)[C@@H]3CSSC[C@H](NC(=O)[C@H](C)NC(=O)[C@H](Cc4ccc(O)cc4)NC(=O)[C@H](CC(N)=O)NC(=O)[C@@H]4CCCN4C(=O)[C@H](CSSC[C@H](NC(=O)CN)C(=O)N[C@@H](CCCCN)C(=O)NCC(=O)N[C@@H](CC(C)C)C(=O)NCC(=O)N[C@@H](CC(=O)O)C(=O)N[C@@H](CO)C(=O)N3)NC2=O)C(=O)N[C@@H](CO)C(=O)N[C@@H](CO)C(=O)N[C@@H](CCCCN)C(=O)N[C@@H](Cc2c[nH]cn2)C(=O)N[C@@H](CCCCN)C(=O)N[C@@H](Cc2c[nH]c3ccccc23)C(=O)N1)C(C)C)C(N)=O` [F5L] (H-GCKGLGDSCTPGKNECCPNYACSSKHKWCKVYL-NH2; disulfide 2-17, 9-22, 16-29), for which the half-maximal inhibitory concentration (IC50) is 10000 ± 4000 nM.

On to `CC(C)C[C@H](NC(=O)[C@H](Cc1ccc(O)cc1)NC(=O)[C@@H](NC(=O)[C@H](CCCCN)NC(=O)[C@@H]1CSSC[C@@H]2NC(=O)[C@H](CCC(=O)O)NC(=O)[C@H](CC(N)=O)NC(=O)[C@H](CCCCN)NC(=O)CNC(=O)[C@@H]3CCCN3C(=O)[C@H]([C@@H](C)O)NC(=O)[C@@H]3CSSC[C@H](NC(=O)[C@H](C)NC(=O)[C@H](Cc4ccc(O)cc4)NC(=O)[C@H](CC(N)=O)NC(=O)[C@@H]4CCCN4C(=O)[C@H](CSSC[C@H](NC(=O)CN)C(=O)N[C@@H](CCCCN)C(=O)NCC(=O)N[C@@H](Cc4c[nH]c5ccccc45)C(=O)NCC(=O)N[C@@H](CC(=O)O)C(=O)N[C@@H](CO)C(=O)N3)NC2=O)C(=O)N[C@@H](CO)C(=O)N[C@@H](CO)C(=O)N[C@@H](CCCCN)C(=O)N[C@@H](Cc2c[nH]cn2)C(=O)N[C@@H](CCCCN)C(=O)N[C@@H](Cc2c[nH]c3ccccc23)C(=O)N1)C(C)C)C(N)=O` [F5W] (H-GCKGWGDSCTPGKNECCPNYACSSKHKWCKVYL-NH2; disulfide 2-17, 9-22, 16-29), for which the half-maximal inhibitory concentration (IC50) stood at 833 ± 81 nM.

Regarding `CC(C)C[C@H](NC(=O)[C@H](Cc1ccc(O)cc1)NC(=O)[C@@H](NC(=O)[C@H](CCCCN)NC(=O)[C@@H]1CSSC[C@@H]2NC(=O)[C@H](CCC(=O)O)NC(=O)[C@H](CC(N)=O)NC(=O)[C@H](CCCCN)NC(=O)CNC(=O)[C@@H]3CCCN3C(=O)[C@H]([C@@H](C)O)NC(=O)[C@@H]3CSSC[C@H](NC(=O)[C@H](C)NC(=O)[C@H](Cc4ccc(O)cc4)NC(=O)[C@H](CC(N)=O)NC(=O)[C@@H]4CCCN4C(=O)[C@H](CSSC[C@H](NC(=O)[C@@H](N)Cc4ccccc4)C(=O)N[C@@H](CCCCN)C(=O)NCC(=O)N[C@@H](Cc4ccccc4)C(=O)NCC(=O)N[C@@H](CC(=O)O)C(=O)N[C@@H](CO)C(=O)N3)NC2=O)C(=O)N[C@@H](CO)C(=O)N[C@@H](CO)C(=O)N[C@@H](CCCCN)C(=O)N[C@@H](Cc2c[nH]cn2)C(=O)N[C@@H](CCCCN)C(=O)N[C@@H](Cc2c[nH]c3ccccc23)C(=O)N1)C(C)C)C(N)=O` [G1F] (H-FCKGFGDSCTPGKNECCPNYACSSKHKWCKVYL-NH2; disulfide 2-17, 9-22, 16-29), the IC50 turned out to be 176 ± 47 nM.

Take `CC(C)C[C@H](NC(=O)[C@H](Cc1ccc(O)cc1)NC(=O)[C@@H](NC(=O)[C@H](CCCCN)NC(=O)[C@@H]1CSSC[C@@H]2NC(=O)[C@H](CCC(=O)O)NC(=O)[C@H](CC(N)=O)NC(=O)[C@H](CCCCN)NC(=O)[C@H](CCC(=O)O)NC(=O)[C@@H]3CCCN3C(=O)[C@H]([C@@H](C)O)NC(=O)[C@@H]3CSSC[C@H](NC(=O)[C@H](C)NC(=O)[C@H](Cc4ccc(O)cc4)NC(=O)[C@H](CC(N)=O)NC(=O)[C@@H]4CCCN4C(=O)[C@H](CSSC[C@H](NC(=O)CN)C(=O)N[C@@H](CCCCN)C(=O)NCC(=O)N[C@@H](Cc4ccccc4)C(=O)NCC(=O)N[C@@H](CC(=O)O)C(=O)N[C@@H](CO)C(=O)N3)NC2=O)C(=O)N[C@@H](CO)C(=O)N[C@@H](CO)C(=O)N[C@@H](CCCCN)C(=O)N[C@@H](Cc2c[nH]cn2)C(=O)N[C@@H](CCCCN)C(=O)N[C@@H](Cc2c[nH]c3ccccc23)C(=O)N1)C(C)C)C(N)=O` [G12E] (H-GCKGFGDSCTPEKNECCPNYACSSKHKWCKVYL-NH2; disulfide 2-17, 9-22, 16-29): the 50% inhibitory concentration (IC50) was found to be 359 ± 82 nM.
